Assay: Thiol reactivity with glutathione (UPLC-UV/MS)
Conditions: 1 mM compound, 10 mM GSH (10 equivalents), 25°C / room temperature, 16 h, caffeine (peptides) or TPPO (SM) internal standard, n = 3; for consumption of starting material to glutathione adduct, pH 7.4: Tris pH 7.4, 10% DMSO; for consumption of starting material to glutathione adduct, pH 8.5: Tris pH 8.5, 10% DMSO
Experimental: After verifying the stability of the phosphonamidic and phosphonic acid warheads at physiological and slightly basic pH, we aimed to investigate the reactivity towards endogenous thiol concentrations. For this, 1 mM bio‐PN or bio‐PO and 1 mM caffeine as an internal standard, as well as 1 mM SM‐PN or SM‐PO and 1 mM TPPO (internal standard), were incubated at room temperature with 10 equivalents (10 mM) glutathione (GSH), and the outcome was followed by UPLC‐MS (Figure S4).
FIGURE 3 Time‐dependent decay of bio‐PN, bio‐PO, SM‐PN, and SM‐PO (1 mM) in the presence of 10 mM GSH with 1 mM caffeine or TPPO as internal standard. The assay was performed at 25°C in Tris buffer (10% DMSO) at (a) pH 7.4, (b) pH 8.5. Results are presented as mean ± standard deviation (n = 3). (c) Labeling conditions to assess by ESI‐MS the ability of bio‐PN, bio‐PO, SM‐PN, and SM‐PO to covalently bind recombinant PTP1B. Stacked deconvoluted MS spectra of the initial time point (t0) of PTP1B labeling with (d) bio‐PO after 4 h: full labeling, (e) bio‐PN after 20 h: ∼80% labeling, (f) SM‐PO after 20 h: no labeling, (g) SM‐PN after 20 h: no labeling.
Figure S4: Monitoring of thiol reactivity with GSH as a model thiol of peptide and small molecule phosphonamidic and phosphonic acids by UPLC-UV/MS. a) Reaction conditions for bio-PN and bio-PO. b) Exemplary UV chromatograms of bio-PO at pH 8.5 and at 0 and 16 hours, highlighting the internal standard (caffeine) and the compound. c) Reaction conditions for SM-PN and SM-PO. d) Exemplary UV chrommatogramms of SM-PN at pH 8.5 and at 0 and 16 hours, highlighting the internal standard (TPPO) and the compound. All experiments were prepared in triplicates. [picture]
For testing the thiol reactivity of bio-PN and bio-PO at pH 7.4, 10 µL of a 10 mM caffeine (internal standard) stock solution in Tris buffer pH 7.4 (final concentration 1 mM) and 10 µL of a 10 mM peptide stock solution in DMSO were added in 75 µL of 50 mM Tris buffer, pH 7.4. Immediately prior to the measurement, 5 µL of a 200 mM stock solution of reduced glutathione (final concentration 10 mM, 10.0 eq.) in Tris buffer (pH adjusted to 7.4) were added. The solutions were transferred to a sample vial and measured by UPLC-UV/MS at room temperature and at time points t0, t0.5h, t1h, t2h, t4h, t8h, t16h 1 µL of the reaction mixture was injected. For the analysis, the peak area of the internal standard was correlated with that of the starting material. The same protocol was followed at pH 8.5 using Tris buffer adjusted accordingly.
Similar conditions were applied in the case of SM-PN and SM-PO. […]

Row | SMILES | consumption of starting material to glutathione adduct, pH 7.4 | consumption of starting material to glutathione adduct, pH 8.5
1 | C#CP(=O)(O)Oc1ccc(CCNC(=O)CCCC[C@@H]2SC[C@@H]3NC(=O)N[C@@H]32)cc1 [SM-PO, 4-(2-biotinamidoethyl)phenyl ethynylphosphonic acid monoester] | no consumption of the starting material to a glutathione adduct was observed | no consumption of the starting material to a glutathione adduct was observed
2 | C#CP(=O)(O)Nc1ccc(CCNC(=O)CCCC[C@@H]2SC[C@@H]3NC(=O)N[C@@H]32)cc1 [SM-PN, N-(4-(2-biotinamidoethyl)phenyl)-P-ethynylphosphonamidic acid] | no consumption of the starting material to a glutathione adduct was observed | no consumption of the starting material to a glutathione adduct was observed

Source: publication PMC12970513, “Unsaturated Phosphorus Electrophiles to Probe Protein Tyrosine Phosphatases” (Angewandte Chemie (International Ed. in English), 2026)
